From US10966426B2, “Herbicidal compositions comprising phenylpyrimidines” (BASF SE, priority 2016, dated 2021)
Where two headings read alike, the source gives them in different places.

How the values were obtained:
Format in all cases: in vivo
[1] = test system: Avena fatua; test: greenhouse pre-emergence treatment, AVEFA; settings: Avena fatua, 480 h, AVEFA, 20 DAT
In short: (§1)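 Pre-emergence spray of compounds, alone or as combinations formulated as 10% emulsion concentrate in water, directly after sowing in loamy sand (~3.0% humus); pots hooded until rooting, kept at 10-25° C or 20-35° C per species for 2 to 4 weeks. Damage scored 0-100 (100 = no emergence/complete destruction); Colby expected value E=X+Y−(X·Y/100).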

[2] = test system: Bromus sterilis; test: greenhouse post-emergence treatment, BROST; settings: Bromus sterilis, read-out: % activity
In short: (§2)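 Pot trial in loamy sand with about 3.0% humus; plants sown in place or transplanted as seedlings a few days before treatment, kept at 10-25° C or 20-35° C by species, water as solvent. Damage scored 0 (none) to 100 (full destruction) over 2 to 4 weeks; combination expectation by Colby, E=X+Y−(X·Y/100).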

[3] = test system: Lolium multiflorum; test: greenhouse post-emergence treatment, LOLMU; settings: Lolium multiflorum, LOLMU
In short: as §2

[4] = test system: Avena fatua; test: greenhouse post-emergence treatment, AVEFA; settings: Avena fatua; for pest or weed control at 125 g/ha: read-out: % activity
In short: as §2

[5] = test system: Ambrosia elatior; test: greenhouse pre-emergence treatment, AMBEL; settings: Ambrosia artemisiifolia, 480 h, AMBEL, 20 DAT
In short: as §1

[6] = test system: Matricaria chamomilla; test: greenhouse post-emergence treatment, MATCH; settings: MATCH; for pest or weed control at 125 g/ha: Matricaria chamomilla
In short: (§3)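 Visual herbicidal effect (0–100) recorded over a 2 to 4 week test period after foliar treatment at plant heights of 3 to 15 cm. Expected combination effects derived by the Colby formula from single-component effects X and Y.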

[7] = test system: Papaver rhoeas; test: greenhouse post-emergence treatment, PAPRH; settings: Papaver rhoeas; for pest or weed control at 125 g/ha / pest or weed control at 250 g/ha / pest or weed control at 500 g/ha: read-out: % activity
In short: as §3

[8] = test system: Brachiaria decumbens; test: greenhouse post-emergence treatment, BRADC; settings: for % activity: cinmethylin solo (EC 750 g/l)
In short: (§4)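 Post-emergence greenhouse spray on 3–15 cm plants, sown direct or transplanted a few days before treatment. Scored visually on a 0–100 scale after 2 to 4 weeks; expected additive effect computed by Colby: E=X+Y−(X·Y/100).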

[9] = test system: Polygonum convolvulus; test: greenhouse post-emergence treatment, POLCO; settings: Fallopia convolvulus, 504 h, read-out: % activity
In short: as §3

[10] = test system: Poa annua; test: greenhouse post-emergence treatment, POAAN; settings: Poa annua, 504 h, read-out: % activity
In short: as §4

[11] = test system: Ambrosia elatior; test: greenhouse post-emergence treatment, AMBEL; settings: cinmethylin solo (EC 750 g/l), 21 DAT, AMBEL
In short: as §4

[12] = test system: Setaria viridis; test: greenhouse post-emergence treatment, SETVI; settings: Setaria viridis, 504 h
In short: as §2

[13] = Urochloa decumbens, 504 h, read-out: % activity
[14] = 62.5 gai/ha (EC 750 g/l), Table X1, read-out: % activity, solo application

Cc1ccc(NC(=O)N(C)C)cc1Cl [chlorotoluron]
pest or weed control at 62.5 g/ha ([1]; chlorotoluron solo 62.5 gai/ha): 0% | pest or weed control at 62.5 g/ha ([2]; 480 h, BROST, chlorotoluron solo 62.5 gai/ha, 20 DAT): 0% | pest or weed control at 125 g/ha ([2]; 480 h, BROST, chlorotoluron solo 125 gai/ha, 20 DAT): 0% | pest or weed control at 500 g/ha ([3]; 480 h, chlorotoluron solo 500 gai/ha, 20 DAT): 80% | pest or weed control at 125 g/ha ([4]; 480 h, AVEFA, chlorotoluron solo 125 gai/ha, 20 DAT): 0% | pest or weed control at 250 g/ha ([4]; 480 h, AVEFA, chlorotoluron solo 250 gai/ha, 20 DAT): 40% | pest or weed control at 500 g/ha ([4]; 480 h, AVEFA, chlorotoluron solo 500 gai/ha, 20 DAT): 70% | pest or weed control at 125 g/ha ([5]; chlorotoluron solo 125 gai/ha): 0% | pest or weed control at 500 g/ha ([5]; chlorotoluron solo 500 gai/ha): 40% | pest or weed control at 125 g/ha ([6]; 480 h, chlorotoluron solo 125 gai/ha, 20 DAT): 50% | pest or weed control at 62.5 g/ha ([7]; 480 h, PAPRH, chlorotoluron solo 62.5 gai/ha, 20 DAT): 0% | pest or weed control at 125 g/ha ([7]; 480 h, PAPRH, chlorotoluron solo 125 gai/ha, 20 DAT): 0% | pest or weed control at 250 g/ha ([7]; 480 h, PAPRH, chlorotoluron solo 250 gai/ha, 20 DAT): 20% | pest or weed control at 500 g/ha ([7]; 480 h, PAPRH, chlorotoluron solo 500 gai/ha, 20 DAT): 25%

Cc1ccccc1CO[C@@H]1C[C@@]2(C(C)C)CC[C@]1(C)O2 (racemic) [cinmethylin]
pest or weed control at 125 g/ha ([8]; Urochloa decumbens, 504 h, BRADC, 21 DAT, solo cinmethylin (EC 750 g/l) 125 gai/ha, read-out: % activity): 0% | pest or weed control at 500 g/ha ([8]; Urochloa decumbens, 504 h, BRADC, 21 DAT, solo cinmethylin (EC 750 g/l) 500 gai/ha): 20% | pest or weed control at 62.5 g/ha [8, 13]: 0% | pest or weed control at 250 g/ha [8, 13]: 10% | % activity ([8]; 125 gai/ha, 21 DAT, BRADC): 0% | % activity ([8]; 500 gai/ha, 21 DAT, BRADC): 20% | pest or weed control at 62.5 g/ha [9]: 0% | pest or weed control at 125 g/ha [9]: 0% | pest or weed control at 250 g/ha [9]: 0% | pest or weed control at 500 g/ha [9]: 0% | inhibition at 62.5 g/ha [1, 14]: 10% | pest or weed control at 62.5 g/ha ([2]; 504 h): 10% | pest or weed control at 250 g/ha ([2]; 504 h): 25% | pest or weed control at 62.5 g/ha ([3]; 504 h, 21 DAT, solo cinmethylin (EC 750 g/l) 62.5 gai/ha, read-out: % activity): 0% | pest or weed control at 125 g/ha ([3]; 504 h, 21 DAT, solo cinmethylin (EC 750 g/l) 125 gai/ha, read-out: % activity): 30% | pest or weed control at 62.5 g/ha [10]: 70% | % activity ([11]; 62.5 gai/ha): 0% | % activity ([11]; 125 gai/ha): 0% | pest or weed control at 125 g/ha ([4]; 504 h): 10% | percent weed control (herbicidal activity, 0-100 scale) at 62.5 g/ha [5, 14]: 0% | percent weed control (herbicidal activity, 0-100 scale) at 125 g/ha ([5]; 125 gai/ha (EC 750 g/l), Table X1, read-out: % activity, solo application): 0% | pest or weed control at 125 g/ha ([12]; SETVI, 21 DAT, solo cinmethylin (EC 750 g/l) 125 gai/ha): 55% | pest or weed control at 62.5 g/ha ([12]; read-out: % activity): 20% | pest or weed control at 500 g/ha ([12]; read-out: % activity): 85% | pest or weed control at 125 g/ha ([6]; 504 h, 21 DAT, solo cinmethylin (EC 750 g/l) 125 gai/ha): 0% | % activity ([6]; cinmethylin solo (EC 750 g/l), 125 gai/ha, 21 DAT): 0% | pest or weed control at 62.5 g/ha ([7]; 504 h, PAPRH, 21 DAT, solo cinmethylin (EC 750 g/l) 62.5 gai/ha): 0% | pest or weed control at 125 g/ha ([7]; 504 h): 20% | pest or weed control at 250 g/ha ([7]; 504 h): 20% | pest or weed control at 500 g/ha ([7]; 504 h): 55%
